Assay results from ChEMBL document CHEMBL5154755, “Discovery of Novel Indazoles as Potent and Selective PI3Kδ Inhibitors with High Efficacy for Treatment of Hepatocellular Carcinoma” (J Med Chem, 2022).
pIC50: −log10 of the molar value.

Columns and labels:
Bel-7402 [1] = assay: Antiproliferative activity against human Bel-7402 cells assessed as inhibition of cell growth incubated for 72 hrs by SRB assay; type: functional, cell-based; settings: Bel-7402, 72 h
HepG2 [2] = assay: cells; settings: Homo sapiens, HepG2, 72 h, read-out: INH
Hep 3B2 [3] = assay: cells; settings: Homo sapiens, Hep3B, 72 h, read-out: INH
HepG2 [4] = assay: cells; settings: Homo sapiens, HepG2, 72 h
Description: Antiproliferative activity against human HepG2 cells assessed as inhibition of cell growth incubated for 72 hrs by SRB assay

[5] = target: T1, Phosphatidylinositol 4,5-bisphosphate 3-kinase catalytic subunit delta isoform (Homo sapiens, UniProt O00329); assay: Inhibition of PI3Kdelta (unknown origin) using PIP2 as substrate incubated for 1 hr in presence of ATP by ADP-Glo assay
T1 sequence (O00329 whole entry): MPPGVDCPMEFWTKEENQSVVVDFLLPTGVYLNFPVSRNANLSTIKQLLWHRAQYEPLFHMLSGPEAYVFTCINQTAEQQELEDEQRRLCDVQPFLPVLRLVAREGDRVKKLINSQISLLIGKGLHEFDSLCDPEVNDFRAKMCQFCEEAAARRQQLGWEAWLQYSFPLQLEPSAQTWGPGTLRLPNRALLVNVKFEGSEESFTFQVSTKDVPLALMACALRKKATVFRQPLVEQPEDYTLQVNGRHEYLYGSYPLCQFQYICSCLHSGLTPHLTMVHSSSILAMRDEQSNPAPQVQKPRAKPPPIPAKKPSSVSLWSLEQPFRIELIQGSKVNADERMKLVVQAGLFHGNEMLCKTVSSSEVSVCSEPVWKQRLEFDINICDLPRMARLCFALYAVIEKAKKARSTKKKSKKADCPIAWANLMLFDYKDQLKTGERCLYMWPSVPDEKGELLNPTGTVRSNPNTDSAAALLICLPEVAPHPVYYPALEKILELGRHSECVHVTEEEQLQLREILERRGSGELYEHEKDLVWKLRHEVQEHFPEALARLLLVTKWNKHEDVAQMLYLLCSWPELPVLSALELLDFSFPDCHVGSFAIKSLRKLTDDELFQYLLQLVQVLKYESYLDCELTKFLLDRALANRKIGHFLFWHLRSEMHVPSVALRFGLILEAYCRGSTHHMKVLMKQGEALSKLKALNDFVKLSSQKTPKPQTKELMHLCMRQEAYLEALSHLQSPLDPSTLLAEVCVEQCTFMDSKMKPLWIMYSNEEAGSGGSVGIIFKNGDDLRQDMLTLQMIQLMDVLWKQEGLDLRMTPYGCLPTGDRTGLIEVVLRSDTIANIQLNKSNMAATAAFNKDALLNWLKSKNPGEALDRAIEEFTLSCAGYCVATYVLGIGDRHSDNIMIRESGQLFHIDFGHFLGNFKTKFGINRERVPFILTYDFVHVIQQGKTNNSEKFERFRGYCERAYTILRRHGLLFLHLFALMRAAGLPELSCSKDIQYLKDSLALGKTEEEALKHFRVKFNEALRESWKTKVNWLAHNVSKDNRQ

Hep 3B2 [6] = assay: Antiproliferative activity against human Hep3B cells assessed as inhibition of cell growth incubated for 72 hrs by SRB assay; type: functional, cell-based
Bel-7402 [7] = assay: cells; settings: Homo sapiens, Bel-7402, 72 h, read-out: INH

Compound	pIC50 (Bel-7402 [1])	inhibition at 10 µM (HepG2 [2])	inhibition at 10 µM (Hep 3B2 [3])	pIC50 (HepG2 [4])	pIC50 [5]	pIC50 (Hep 3B2 [6])	inhibition at 10 µM (Bel-7402 [7])
C[C@H](Nc1ncnc2[nH]cnc12)c1nn(-c2ccncc2)c2cc(F)ccc12	< 4.40	47%	5%	4.64	7.28	4.67	16%
C[C@H](Nc1ncnc2[nH]cnc12)c1nn(-c2cccc(S(C)(=O)=O)c2)c2cc(F)ccc12	4.70	23%	11%	4.83	7.91	4.88	-16%
C[C@H](Nc1ncccc1C#N)c1nn(-c2cccnc2)c2cc(F)ccc12	< 4.40	24%	10%	< 4.40	< 5.00	< 4.40	11%
CC[C@H](Nc1nc(N)nc(N)c1C#N)c1nn(-c2cccnc2)c2cc(F)ccc12	< 4.40	28%	32%	< 4.40	8.68	4.43	29%
CC(Nc1ncnc2[nH]cnc12)c1nn(-c2cccnc2)c2ccccc12 (racemic)	4.79	13%	9%	4.58	6.41	4.39	4%
C[C@H](Nc1ncnc2[nH]cnc12)c1nn(-c2cccnc2)c2cc(F)ccc12	< 4.40	23%	20%	4.43	7.42	4.46	8%
C[C@H](Nc1ncnc2[nH]cnc12)c1nn(-c2cccc(F)c2)c2cc(F)ccc12	< 4.40	33%	28%	4.49	6.31	< 4.40	-17%
CC(C)[C@H](Nc1ncnc2[nH]cnc12)c1nn(-c2cccnc2)c2cc(F)ccc12	< 4.40	16%	4%	< 4.40	7.14	< 4.40	5%
C[C@H](Nc1ncnc2[nH]cnc12)c1nn(-c2cccnc2)c2ccc(F)cc12	4.50	8%	13%	4.38	7.00	4.40	-22%
C[C@H](Nc1nc(N)nc2[nH]cnc12)c1nn(-c2cccnc2)c2cc(F)ccc12	< 4.40	11%	14%	< 4.40	7.41	< 4.40	-5%
C[C@H](Nc1ncnc2[nH]cnc12)c1nn(-c2ccccn2)c2cc(F)ccc12	< 4.40	22%	12%	4.52	5.64	< 4.40	7%
C[C@H](Nc1ncnc2[nH]cnc12)c1nn(-c2cc(F)cc(F)c2)c2cc(F)ccc12	< 4.40	30%	14%	4.66	6.37	< 4.40	-8%
C[C@H](Nc1ncnc2[nH]cnc12)c1nn(-c2ccc(C#N)cc2)c2cc(F)ccc12	4.50	57%	46%	4.82	6.66	4.87	0%
C[C@H](Nc1nc(N)nc(N)c1C#N)c1nn(-c2cccnc2)c2cc(C(F)(F)F)ccc12	5.50	36%	69%	5.77	6.54	5.01	60%
C[C@H](Nc1nc(N)nc(N)c1C#N)c1nn(-c2cccc(S(C)(=O)=O)c2)c2cc(F)ccc12	4.66	24%	36%	4.72	8.59	4.70	14%
C[C@H](Nc1ncnc(N)c1C#N)c1nn(-c2cccnc2)c2cc(F)ccc12	4.43	56%	30%	4.60	7.68	4.72	-4%
Cc1ccc2c(c1)c([C@H](C)Nc1ncnc3[nH]cnc13)nn2-c1cccnc1	< 4.40	18%	8%	< 4.40	6.56	< 4.40	-10%
C[C@H](Nc1nc(N)nc(N)c1C#N)c1nn(-c2ccncc2)c2cc(F)ccc12	5.08	84%	50%	5.13	8.24	4.93	43%
CC[C@H](Nc1ncnc2[nH]cnc12)c1nn(-c2cccnc2)c2cc(F)ccc12	4.54	26%	4%	4.47	7.23	< 4.40	12%
C[C@H](Nc1ncnc2[nH]cnc12)c1nn(-c2cccnc2)c2ccccc12	4.95	62%	21%	4.69	7.42	4.44	40%
C[C@H](Nc1nc(N)nc(N)c1C#N)c1nn(-c2cccnc2)c2cc(F)ccc12	4.53	29%	30%	4.64	8.43	4.62	15%
C[C@H](Nc1ncnc2[nH]cnc12)c1nn(-c2cccnc2)c2cc(Cl)ccc12	< 4.40	13%	13%	< 4.40	8.11	< 4.40	17%
